Experimental data published in PubChem BioAssay AID250 (DTP/NCI, 2004).
Values joined by “and” are separate entries in the source; they are usually repeats but may differ in a detail not shown here. Equal entries are not always repeated. Inconclusive results and toxic doses are left out.

System: BDF1 mice, L1210 leukemia sc, survival T/C
Experiment: NCI In Vivo Anticancer Drug Screen. Data for tumor model L1210 Leukemia (subcutaneous) in B6D2F1 (BDF1) mice
Settings: endpoint: median survival time, higher = longer survival
Method: The antitumor activity of compounds was measured in mice bearing transplantable tumors. Survival or tumor size were measured and the results are expressed as the measurement made in the treated group (T) divided by the measurement made in the vehicle treated control group (C). The tumor model used in this assay is L1210 Leukemia (subcutaneous) in B6D2F1 (BDF1) mice

## COc1ccc2cc1Oc1ccc(cc1)C[C@H]1c3cc(c(OC)cc3CCN1C)Oc1c(OC)c(OC)cc3c1[C@H](C2)N(C)CC3
dose: 37.5 mg/kg/injection, schedule: Q01DX009 (sc), vehicle: methylcellulose (MC)
  T/C: 90 % of control
dose: 37.5 mg/kg/injection, schedule: Q01DX009 (sc), vehicle: other
  T/C: 90 % of control
dose: 39.0 mg/kg/injection, schedule: Q01DX009 (sc), vehicle: other
  T/C: 100 % of control and 103 % of control
dose: 65.0 mg/kg/injection, schedule: Q01DX009 (sc), vehicle: other
  T/C: 100 % of control and 103 % of control
dose: 75.0 mg/kg/injection, schedule: Q01DX009 (sc), vehicle: methylcellulose (MC)
  T/C: 90 % of control
dose: 75.0 mg/kg/injection, schedule: Q01DX009 (sc), vehicle: other
  T/C: 92 % of control
dose: 108.0 mg/kg/injection, schedule: Q01DX009 (sc), vehicle: other
  T/C: 94 % of control and 95 % of control
dose: 150.0 mg/kg/injection, schedule: Q01DX009 (sc), vehicle: methylcellulose (MC)
  T/C: 95 % of control
dose: 150.0 mg/kg/injection, schedule: Q01DX009 (sc), vehicle: other
  T/C: 96 % of control
dose: 180.0 mg/kg/injection, schedule: Q01DX009 (sc), vehicle: other
  T/C: 97 % of control and 100 % of control
dose: 300.0 mg/kg/injection, schedule: Q01DX009 (sc), vehicle: other
  T/C: 88 % of control and 91 % of control and 82 % of control
dose: 600.0 mg/kg/injection, schedule: Q01DX009 (sc), vehicle: other
  T/C: 70 % of control

## O=C(Nc1ccc(C2=NCCCN2)cc1)c1ccc(C(=O)Nc2ccc(C3=NCCCN3)cc2)cc1
dose: 3.0 mg/kg/injection, schedule: Q01DX Z (sc), vehicle: methylcellulose (MC)
  T/C: 190 % of control
dose: 5.0 mg/kg/injection, schedule: Q01DX Z (sc), vehicle: methylcellulose (MC)
  T/C: 195 % of control
dose: 8.4 mg/kg/injection, schedule: Q01DX Z (sc), vehicle: methylcellulose (MC)
  T/C: 165 % of control
dose: 14.0 mg/kg/injection, schedule: Q01DX Z (sc), vehicle: methylcellulose (MC)
  T/C: 155 % of control
dose: 23.0 mg/kg/injection, schedule: Q01DX Z (sc), vehicle: methylcellulose (MC)
  T/C: 150 % of control

## CCN(CC)CCNc1ccc(C)c2sc3ccccc3c(=O)c12 (tested in a mixture with another compound)
dose: 39.0 mg/kg/injection, schedule: Q01DX Z (sc), vehicle: methylcellulose (MC)
  T/C: 100 % of control
dose: 65.0 mg/kg/injection, schedule: Q01DX Z (sc), vehicle: methylcellulose (MC)
  T/C: 100 % of control
dose: 108.0 mg/kg/injection, schedule: Q01DX Z (sc), vehicle: methylcellulose (MC)
  T/C: 100 % of control
dose: 180.0 mg/kg/injection, schedule: Q01DX Z (sc), vehicle: methylcellulose (MC)
  T/C: 100 % of control
dose: 200.0 mg/kg/injection, schedule: Q01DX Z (sc), vehicle: methylcellulose (MC)
  T/C: 111 % of control

## C=CC(O)CN1CC1 (configuration not stated)
dose: 0.65 mg/kg/injection, schedule: Q01DX Z (sc), vehicle: saline
  T/C: 100 % of control
dose: 1.08 mg/kg/injection, schedule: Q01DX Z (sc), vehicle: saline
  T/C: 100 % of control
dose: 1.7 mg/kg/injection, schedule: Q01DX Z (sc), vehicle: saline
  T/C: 100 % of control
dose: 1.8 mg/kg/injection, schedule: Q01DX Z (sc), vehicle: saline
  T/C: 100 % of control
dose: 2.8 mg/kg/injection, schedule: Q01DX Z (sc), vehicle: saline
  T/C: 111 % of control
dose: 3.0 mg/kg/injection, schedule: Q02DX Z (sc), vehicle: saline
  T/C: 104 % of control
dose: 4.7 mg/kg/injection, schedule: Q01DX Z (sc), vehicle: saline
  T/C: 160 % of control
dose: 5.0 mg/kg/injection, schedule: Q01DX Z (sc), vehicle: saline
  T/C: 155 % of control and 159 % of control and 163 % of control
dose: 5.0 mg/kg/injection, schedule: Q02DX Z (sc), vehicle: saline
  T/C: 118 % of control
dose: 7.8 mg/kg/injection, schedule: Q01DX Z (sc), vehicle: saline
  T/C: 170 % of control and 177 % of control
dose: 8.4 mg/kg/injection, schedule: Q01DX Z (sc), vehicle: saline
  T/C: 122 % of control
dose: 8.4 mg/kg/injection, schedule: Q## X Z (sc), vehicle: saline
  T/C: 109 % of control
dose: 14.0 mg/kg/injection, schedule: Q01DX Z (sc), vehicle: saline
  T/C: 113 % of control
dose: 14.0 mg/kg/injection, schedule: Q02DX Z (sc), vehicle: saline
  T/C: 181 % of control
dose: 14.0 mg/kg/injection, schedule: Q## X Z (sc), vehicle: saline
  T/C: 118 % of control
dose: 21.6 mg/kg/injection, schedule: Q01DX Z (sc), vehicle: saline
  T/C: 110 % of control
dose: 23.0 mg/kg/injection, schedule: Q01DX Z (sc), vehicle: saline
  T/C: 100 % of control
dose: 23.0 mg/kg/injection, schedule: Q02DX Z (sc), vehicle: saline
  T/C: 150 % of control
dose: 23.0 mg/kg/injection, schedule: Q## X Z (sc), vehicle: saline
  T/C: 154 % of control
dose: 36.0 mg/kg/injection, schedule: Q01DX Z (sc), vehicle: saline
  T/C: 111 % of control
dose: 39.0 mg/kg/injection, schedule: Q## X Z (sc), vehicle: saline
  T/C: 159 % of control
dose: 60.0 mg/kg/injection, schedule: Q01DX Z (sc), vehicle: saline
  T/C: 100 % of control
dose: 65.0 mg/kg/injection, schedule: Q01DX001 (sc), vehicle: saline
  T/C: 118 % of control
dose: 65.0 mg/kg/injection, schedule: Q02DX Z (sc), vehicle: saline
  T/C: 104 % of control
dose: 65.0 mg/kg/injection, schedule: Q## X Z (sc), vehicle: saline
  T/C: 109 % of control
